Holding throughout (assay): DTP human tumour cell line panel, 48 h
Assay [1] deals with BT-549.
Assay [2] deals with SF-295.
Assay [3] relates to KM12.
The subject of assay [4] is ACHN.
Assay [5] concerns SK-MEL-28.
Assay [6] deals with MCF7.
The subject of assay [7] is HCT-15.
In assay [8] the test system is COLO 205.
The test system of assay [9] is A549.
Assay [10] concerns MDA-MB-435.
Assay [11] relates to NCI-H460.
Assay [12] concerns UACC-257.
Assay [13] has as its system MDA-N.
Assay [14] concerns 786-0.
The test system of assay [15] is NCI-H23.
Assay [16] deals with Malme-3M.
Assay [17] relates to TK-10.
For assay [18], the system named is SN12C.
Assay [19] has as its system SK-OV-3.
Assay [20] concerns MOLT-4.

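Cultured in 96-well plates, cells were exposed to test compound for 48 hours across five concentrations. Here, GI50 denotes the concentration required for 50% inhibition of growth.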 Active and inactive are the calls of the source. Cut-off read from the data, not from the text of the source: active = GI50 up to about 1.1 µM and inactive = higher.

With `[N-]=[N+]=CC(=O)COC(=O)c1ccccc1`, the GI50 in [1] was > 100 µM (inactive); in [2] it was > 100 µM (inactive); in assay [3] it was > 100 µM (inactive); in assay [4] it was > 100 µM (inactive); in assay [5] it was > 100 µM (inactive); in assay [6] it was 88.5 µM (inactive). Moreover, the GI50 in [7] is greater than 100 µM; in [8] it was > 100 µM (inactive); in assay [9], 74.1 µM (inactive); in assay [10] it was > 100 µM (inactive); in assay [11] it was > 100 µM (inactive); in assay [12], > 100 µM (inactive). The GI50 in assay [13], in assay [14], in assay [15], in [16], in [17] and in assay [18] was > 100 µM (inactive) each time. Further, the GI50 in [19] and in [20] was > 100 µM (inactive) throughout.
On to `CC(=O)OC1=CC2(OC(C)=O)CC(C)(C)C1C1C(=O)C=CC(=O)C12` (stereo not given), for which the GI50 was 11.3 µM (inactive) in [1]; > 75 µM (inactive) in assay [2]; > 100 µM (inactive) in assay [3]; 20.1 µM (inactive) in [4]; 41.4 µM (inactive) in [5]; 32.7 µM (inactive) in assay [6]. Further, the GI50 in assay [7] is greater than 55.6 µM; in [8], > 42.5 µM (inactive); in assay [9], > 100 µM (inactive); in assay [10], 22.9 µM (inactive); in [11], > 62.8 µM (inactive); in [12] it was > 100 µM (inactive). Besides, the GI50 in [13] was 31.1 µM (inactive); in [14], > 50.7 µM (inactive); in assay [15] it was > 73.1 µM (inactive); in assay [16] it was 17.6 µM (inactive); in [17] it was > 100 µM (inactive); in assay [18], > 56.6 µM (inactive). The GI50 was > 100 µM (inactive) in assay [19] and > 63.8 µM (inactive) in assay [20].
Turning to `COc1ccc2c(c1)c(=O)c1c(NCCN(C)C)ccc3c(=O)n(CCN(C)C)c(=O)n2c31`, the GI50 in assay [1] is 0.764 µM (active); in assay [2], 0.0853 µM (active); in [3], 0.0815 µM (active); in [4], 0.0138 µM (active); in [5], 0.383 µM (active); in assay [6], 0.0368 µM (active). Also, the concentration for 50% growth inhibition (GI50) is less than 0.0223 µM in [7]; 0.0293 µM (active) in [8]; 0.0367 µM (active) in assay [9]; 0.117 µM (active) in assay [10]; < 0.01 µM (active) in assay [11]; 0.166 µM (active) in assay [12]. Further, the GI50 was 0.1 µM (active) in [13]; < 0.0125 µM (active) in assay [14]; 0.11 µM (active) in assay [15]; 0.29 µM (active) in assay [16]; 0.141 µM (active) in assay [17]; 0.0298 µM (active) in [18]. For the same molecule, the GI50 was 0.55 µM (active) in [19] and < 0.01 µM (active) in assay [20].
Turning to `Fc1ccc2nc3n(c2c1)C(c1c(Cl)cccc1Cl)SC3` (stereo not given), the GI50 in assay [1], in [2], in assay [3], in [4], in assay [5] and in assay [6] was > 100 µM (inactive) each time. Further, the GI50 in assay [7] is greater than 100 µM; in [8] it was > 100 µM (inactive); in [9], > 100 µM (inactive); in assay [10], > 100 µM (inactive); in [11], > 100 µM (inactive); in assay [12], > 100 µM (inactive). Besides, the GI50 is 7.89 µM (inactive) in [13]; > 100 µM (inactive) in assay [14]; > 100 µM (inactive) in assay [15]; > 100 µM (inactive) in assay [16]; > 100 µM (inactive) in assay [17]; > 100 µM (inactive) in assay [18]. For the same molecule, the GI50 in assay [19] was > 100 µM (inactive); in [20], 6.71 µM (inactive).
`COC(=O)/C=C1/OC(c2ccc(C)cc2)=C(Cl)C1=O`: the GI50 was 17.7 µM (inactive) in assay [1]; 19.8 µM (inactive) in assay [2]; 14.6 µM (inactive) in assay [3]; 16.7 µM (inactive) in assay [4]; 16.7 µM (inactive) in assay [5]; 16.1 µM (inactive) in [6]. Further, the GI50 in assay [7] was 9.25 µM; in assay [8] it was 11.2 µM (inactive); in assay [9], 20.1 µM (inactive); in assay [10], 17.8 µM (inactive); in [11], 22 µM (inactive); in [12], 20.3 µM (inactive). Further, the GI50 in assay [13] is 16.4 µM (inactive); in assay [14], 13.9 µM (inactive); in assay [15], 19 µM (inactive); in [16] it was 17.7 µM (inactive); in assay [17], 20.5 µM (inactive); in assay [18], 17.9 µM (inactive). In addition, the results for the GI50 in [19] and in [20] were 24.2 µM (inactive) and 4.23 µM (inactive), respectively.
Consider `CC(=O)Nc1ccc(S(=O)(=O)/N=C2\C=CC(=O)c3ccccc32)cc1`, for which the GI50 is 12.1 µM (inactive) in [1]; 7.29 µM (inactive) in assay [2]; 10.5 µM (inactive) in [3]; 7.35 µM (inactive) in assay [4]; 10.5 µM (inactive) in assay [5]; 5.01 µM (inactive) in [6]. Also, the 50% growth inhibitory concentration (GI50) in [7] is 7.62 µM; in [8], 13.3 µM (inactive); in assay [9], 9.98 µM (inactive); in assay [10] it was 1.84 µM (inactive); in assay [11], 12.1 µM (inactive); in assay [12], 6.22 µM (inactive). Besides, the GI50 in assay [13] was 1.95 µM (inactive); in assay [14], 9.25 µM (inactive); in assay [15] it was 4.22 µM (inactive); in assay [16], 3.65 µM (inactive); in [17] it was 19.9 µM (inactive); in assay [18], 4.92 µM (inactive). Also, the values for the GI50 in assay [19] and in assay [20] were 16.5 µM (inactive) and 0.428 µM (active), respectively.
Turning to `Nc1nc2ncc(SCc3ccc(C(=O)NC(CCC(=O)O)C(=O)O)cc3)cc2c(=O)[nH]1` (stereo not given), the GI50 in assay [1], in [2], in assay [3], in [4], in assay [5] and in assay [6] was > 100 µM (inactive) throughout. Also, the GI50 was greater than 100 µM in [7]; > 100 µM (inactive) in assay [8]; > 100 µM (inactive) in assay [9]; > 100 µM (inactive) in assay [10]; > 100 µM (inactive) in assay [11]; > 100 µM (inactive) in [12]. In addition, the GI50 in assay [13], in assay [14], in [15], in assay [16], in assay [17] and in [18] was > 100 µM (inactive) in each case. For the same molecule, the GI50 in [19] and in [20] was > 100 µM (inactive) each time.
On to `Cc1c(CCCl)c(N=[N+]=[N-])n2c(nc3ccccc32)c1C#N`, for which the GI50 was 0.867 µM (active) in [1]; 1.67 µM (inactive) in [2]; 1.66 µM (inactive) in assay [3]; 1.22 µM (inactive) in assay [4]; 1.58 µM (inactive) in [5]; 0.47 µM (active) in assay [6]. Further, the GI50 in [7] is 1.3 µM; in [8], 1.07 µM (active); in assay [9], 2.12 µM (inactive); in [10], 1.43 µM (inactive); in assay [11] it was 1.39 µM (inactive); in assay [12], 1.6 µM (inactive). For the same molecule, the GI50 was 1.56 µM (inactive) in [13]; 0.601 µM (active) in assay [14]; 1.41 µM (inactive) in assay [15]; 1.45 µM (inactive) in assay [16]; 1.52 µM (inactive) in assay [17]; 1.71 µM (inactive) in assay [18]. Further, the values for the GI50 in [19] and in [20] were 2.11 µM (inactive) and 0.249 µM (active), respectively.
With `O=C(Oc1cccc(Cl)c1)c1cc2cc(CCl)ccc2oc1=O`, the GI50 in [1] is > 100 µM (inactive); in assay [2], 71.1 µM (inactive); in assay [3] it was 28.6 µM (inactive); in assay [4], 17.6 µM (inactive); in assay [5], 40 µM (inactive); in assay [6], 30.3 µM (inactive). Besides, the GI50 in assay [7] is 88.3 µM; in assay [8], 20.7 µM (inactive); in assay [9] it was 33 µM (inactive); in assay [10], 30.4 µM (inactive); in assay [11], 37.8 µM (inactive); in assay [12] it was 16.3 µM (inactive). Further, the GI50 in assay [13] is 24.5 µM (inactive); in [14], 41.8 µM (inactive); in [15] it was 59 µM (inactive); in assay [16], 14 µM (inactive); in [17] it was 32.1 µM (inactive); in assay [18], 48.9 µM (inactive). In addition, the values for the GI50 in assay [19] and in assay [20] were > 100 µM (inactive) and 34.9 µM (inactive), respectively.
On to `NC(=O)c1ccc2c(c1)S(=O)(=O)c1ccccc1C2=O`, for which the GI50 in [1] is > 100 µM (inactive); in [2] it was 57.8 µM (inactive); in [3] it was > 100 µM (inactive); in [4], > 100 µM (inactive); in assay [5], > 100 µM (inactive); in assay [6] it was > 100 µM (inactive). Further, the GI50 in [7] was greater than 100 µM; in assay [8], > 100 µM (inactive); in [9] it was > 100 µM (inactive); in assay [10], > 100 µM (inactive); in assay [11] it was > 100 µM (inactive); in assay [12], > 100 µM (inactive). The GI50 in assay [13] was > 100 µM (inactive); in assay [14] it was 64.6 µM (inactive); in [15], > 100 µM (inactive); in assay [16] it was > 100 µM (inactive); in assay [17] it was > 100 µM (inactive); in assay [18], > 100 µM (inactive). Moreover, the GI50 was 75 µM (inactive) in assay [19] and > 100 µM (inactive) in [20].

As a reminder, the GI50 is the concentration that inhibits growth by half.

The values above are taken from ChEMBL document CHEMBL1201862, “PubChem BioAssay data set” (2004).
